Results on 8 compounds are retold here after publication PMC3716919, “Oxidative stress disruption of receptor-mediated calcium signaling mechanisms” (Journal of Biomedical Science, 2013).

Values joined by “and” are separate entries in the source; they are usually repeats but may differ in a detail not shown here. Equal values may be shown once. “Also recorded” adds a separate entry of the source. Bounds are passed on as bounds.

The target of experiment [1] is T1, human M3 muscarinic acetylcholine receptor (Homo sapiens, UniProt P20309).
T1 construct: CHO cells expressing the human M3 muscarinic acetylcholine receptor open reading frame; host or cells: CHO cells, stably transfected (CHO-M3)
The format is cell-based.

The subject of experiment [2] is store-operated calcium entry (SOCE) channels. Briefly: Store-operated calcium entry (SOCE) in CHO-M3 cells (fura-2 imaging). In kind it is cell-based, Chinese hamster. As to conditions: for acute effect of direct SOCE channel inhibitors on SOCE: added after activation of SOCE by 10 μM carbamylcholine, honokiol 30 μM in insert, unpublished observations; for initial rate of rise of [Ca2+]i in response to reintroduction of calcium: control cells.

Experiment [3] deals with T2, human M3 muscarinic receptor (Homo sapiens, UniProt P20309).
T2 construct: CHO cells expressing the human M3 muscarinic acetylcholine receptor open reading frame; host or cells: CHO cells, stably transfected (CHO-M3)
The format is binding. The procedure: (§1) In some experiments, the cells were exposed to 2 mM tBHP for 90 min before harvesting. Binding was determined by filtering the suspension through glass fiber filters (1 μm pore size) and measuring the amount of radioactivity bound to membranes trapped on the filters by liquid scintillation counting.
(§2) Binding parameters were averaged from 3 independent experiments. […] 5′-Guanylyl-imidodiphosphate (Gpp(NH)p) was included in some experiments to assess receptor – G protein interactions.

Experiment [4] addresses T3, human M2 muscarinic receptor (Homo sapiens, UniProt P08172).
T3 sequence (P08172 1-466): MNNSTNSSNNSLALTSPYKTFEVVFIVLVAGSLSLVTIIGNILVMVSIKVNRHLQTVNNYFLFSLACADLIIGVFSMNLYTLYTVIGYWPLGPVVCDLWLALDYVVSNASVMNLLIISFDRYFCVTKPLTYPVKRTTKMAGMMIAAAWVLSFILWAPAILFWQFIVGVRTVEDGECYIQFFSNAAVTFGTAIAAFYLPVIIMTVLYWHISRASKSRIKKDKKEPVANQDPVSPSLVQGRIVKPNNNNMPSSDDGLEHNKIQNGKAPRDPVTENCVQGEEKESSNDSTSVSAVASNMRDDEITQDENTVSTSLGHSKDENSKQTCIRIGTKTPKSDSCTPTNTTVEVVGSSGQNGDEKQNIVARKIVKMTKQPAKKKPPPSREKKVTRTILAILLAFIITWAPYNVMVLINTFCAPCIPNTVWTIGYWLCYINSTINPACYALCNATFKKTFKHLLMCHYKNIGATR
Briefly: [3H]N-methylscopolamine dissociation from M2 receptors expressed in CHO cells. The format is binding. The procedure: as §1, §2
Muscarinic receptors can also be regulated by ligands that bind to an allosteric site. […] Accordingly, we measured ligand dissociation from muscarinic receptors after exposure to 2 mM tBHP for 90 min (Figure 9).

The subject of experiment [5] is CHO-M3 cells. The experiment is described as follows: Resting cytosolic calcium concentration in CHO-M3 cells (fura-2 imaging). The format is cell-based, Chinese hamster.
Experiment [6] relates to CHO-M3 cells. Briefly: Endoplasmic reticulum luminal calcium (Mag-Fura 2, saponin-permeabilized cells). The format is cell-based, Chinese hamster. The protocol: The concentration of Ca^2+ in the lumen of the ER ([Ca^2+]L) was measured using the low-affinity calcium indicator, Mag-Fura 2 (Molecular Probes). […] The media was removed and the cells rinsed with BSS and then incubated with Mag-Fura 2 (50 μM) for 60 minutes at room temperature. Mag-Fura 2 was removed and the cells incubated for an additional 30 minutes. Prior to imaging, the BSS was removed and replaced with Ca^2+- and Mg^2+-free BSS. During imaging, the cells were permeabilized by exposure to 0.005% saponin for 70 seconds to release cytosolic calcium. This caused a rapid decrease in total fluorescence intensity following excitation at both 340 and 380 nm, but elimination of the pervasive cytosolic signal allowed detection of ER lumen calcium levels 30 seconds after saponin addition. Following stabilization of the signal (≈100 sec), R340/380 was averaged for 10 seconds in approximately 20 cells on each plate.

Experiment [7] concerns CHO-M3 cells. The experiment is described as follows: Reactive oxygen species, DCFDA fluorescence. In kind it is cell-based, Chinese hamster. The following applies: 90 min exposure. The protocol: The concentration of reactive oxygen species (ROS) was determined by the […] of 2′,7′-dichlorodihydrofluorescein (DCFDA; Sigma). CHO-M3 cells were plated on a 96 well plate with opaque walls at a density of 30,000 cells/well, and incubated overnight in phenol red-free media. Following a 90 min exposure to tBHP, the media was removed and the cells were washed with BSS. DCFDA (100 μl of a 40 μM solution) was added, and the plate was incubated for 1 h before measuring fluorescence at 485 nm excitation/520 nm emission using a FLUOstar plate reader.

In experiment [8] the test system is CHO-M3 cells. Briefly: Thapsigargin-induced release of calcium from the ER in CHO-M3 cells (fura-2 imaging).
[9] abbreviates: 90 min exposure, extracellular calcium present.

T2 sequence (P20309 whole entry): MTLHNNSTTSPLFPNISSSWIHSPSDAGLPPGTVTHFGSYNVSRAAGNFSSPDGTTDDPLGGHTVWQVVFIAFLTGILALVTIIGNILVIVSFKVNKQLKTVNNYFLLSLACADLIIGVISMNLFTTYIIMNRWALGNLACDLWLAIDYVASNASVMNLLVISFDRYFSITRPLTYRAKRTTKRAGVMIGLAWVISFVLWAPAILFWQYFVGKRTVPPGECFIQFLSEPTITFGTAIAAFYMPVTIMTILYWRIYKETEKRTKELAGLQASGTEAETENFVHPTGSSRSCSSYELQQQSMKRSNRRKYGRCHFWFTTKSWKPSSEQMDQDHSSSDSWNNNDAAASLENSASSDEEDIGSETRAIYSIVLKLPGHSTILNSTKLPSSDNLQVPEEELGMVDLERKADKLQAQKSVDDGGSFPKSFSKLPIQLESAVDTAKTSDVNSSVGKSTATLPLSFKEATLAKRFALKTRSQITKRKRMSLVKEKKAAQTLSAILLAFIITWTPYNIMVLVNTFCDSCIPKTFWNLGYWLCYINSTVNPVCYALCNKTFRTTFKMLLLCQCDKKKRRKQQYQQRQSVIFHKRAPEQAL
T1 sequence (P20309 whole entry): as above

Regarding `NCCOB(c1ccccc1)c1ccccc1` [2-aminoethoxydiphenylborane], the “effect on all calcium responses to carbamylcholine” value in experiment [1] is given as “completely blocked”. The “acute effect of direct SOCE channel inhibitors on SOCE” value in experiment [2] is on record as “immediate reductions in SOCE; also recorded: immediate reduction of SOCE”.

In the case of `Nc1nc2c(ncn2[C@@H]2O[C@H](COP(=O)(O)OP(=O)(O)NP(=O)(O)O)[C@@H](O)[C@H]2O)c(=O)[nH]1` [Gpp(NH)p, 5′-Guanylyl-imidodiphosphate], the “effect on carbamylcholine inhibition curves of [3H]MS binding” value in experiment [3] is reported as “shifted the inhibition curves to the right”.

As to `Cl.O=S(=O)(c1cccc2c(Cl)cccc12)N1CCCNCC1` [ML 9, 1-(5-chloronaphthalenesulfonyl)homo piperazine hydrochloride], the “acute effect of direct SOCE channel inhibitors on SOCE” value in experiment [2] is “immediate reduction of SOCE”.

Turning to `C[N+]1(C)[C@@H]2CC(OC(=O)[C@H](CO)c3ccccc3)C[C@H]1[C@@H]1O[C@@H]12` (stereo partly shown) [[^3H]MS, [^3H]N-methylscopolamine], in experiment [4], the “k−1, rate constant for [3H]MS dissociation” value is 0.027 ± 0.004 min⁻¹ and 0.021 ± 0.006 min⁻¹; the “k−1, rate constant for [3H]MS dissociation, with gallamine” value is 0.004 ± 0.001 min⁻¹ and 0.005 ± 0.002 min⁻¹.

As for `C[N+](C)(C)CCOC(N)=O.[Cl-]` [carbamylcholine], the “initial rate of rise of [Ca2+]i in response to reintroduction of calcium” value in experiment [2] (after carbamylcholine in calcium-free medium, 2 mM calcium reintroduced) is 24 ± 8 nM/s.

As to `C=CCc1ccc(O)c(-c2ccc(O)c(CC=C)c2)c1` [honokiol], in experiment [2], the “acute effect of direct SOCE channel inhibitors on SOCE” value is listed as “immediate reductions in SOCE; also recorded: immediate reduction of SOCE”.

With `CC(C)(C)OO` [tBHP, tert-butyl hydroperoxide], the “effect on the response to M3 receptor activation” value in experiment [1] (90 min exposure, all concentrations at or above 1 mM, no extracellular calcium) is “depressed”. The “effect on the initial calcium response to carbamylcholine” value in experiment [1] (setting [9]) is on record as “not significantly affected”. The “resting [Ca2+]i after exposure (control 26 nM)” value in the experiment on CHO-M3 cells [5] (20 mM tBHP, 90 min, 2 mM extracellular calcium) came to 127 nM. Besides, the “resting [Ca2+]i after exposure (control 26 nM)” value in the experiment with CHO-M3 cells [5] (0.5-10 mM tBHP, 90 min (abstract)) is listed as “up to 127 nM”. Also, the “resting calcium concentration after exposure” value in the experiment with CHO-M3 cells [5] (90 min exposure, Figure 3a) is over 100 nM. In addition, in experiment [2] (20 mM added at 120 sec after 10 μM carbamylcholine), the “acute effect on calcium entry after activation of SOCE” value is reported as “did not block calcium entry”. The “depression of SOCE after thapsigargin” value in experiment [2] (90 min exposure, 0.5-5 mM, dose-dependent, calcium reintroduced (2 mM)) is reported as 30-70%. In addition, the “effect on ability of thapsigargin-induced calcium release to evoke SOCE” value in experiment [2] (90 min exposure, 0.5-20 mM, extracellular calcium present) is given as “severely compromised”. Further, in experiment [2] (setting [9]), the “effect on ability to maintain the higher level of [Ca2+]i (plateau, SOCE)” value was “compromised in a concentration-dependent manner”. The “decrease of [Ca2+]L” value with CHO-M3 cells [6] (90 min exposure, 0.5-10 mM (abstract)) is reported as 55%. Besides, the “[Ca2+]L, % of control levels” value in the experiment with CHO-M3 cells [6] (pretreatment 1-20 mM for 90 min) is reported as “≈ 55 % of control”. Further, the “threshold concentration for ROS production” value in the experiment with CHO-M3 cells [7] is reported as 5 mM. In the experiment with CHO-M3 cells [7] (at 10 mM tBHP), the “increase in ROS” value is recorded as “up to 400%”. In experiment [3], the “effect on ability of carbamylcholine to inhibit [3H]MS binding” value is on record as “not affected”; the “effect on atropine-induced dissociation of M3 receptor-[3H]MS complex and on gallamine slowing of dissociation” value was “had no effect”. For the same compound, the “effect on [3H]MS binding affinity” value in experiment [3] (2 mM for 90 min) is “not affected”. Also, the “effect on allosteric receptor actions” value in experiment [4] (2 mM for 90 min) is given as “not affected”. In addition, in the experiment on CHO-M3 cells [8] (90 min exposure, all concentrations 0.5 to 5 mM, calcium-free medium), the “inhibition of the initial thapsigargin-stimulated release of calcium from the ER” value came to 50%.

With `C/C=C(/C)C(=O)O[C@H]1C(C)=C2[C@H]([C@@H]1OC(=O)CCCCCCC)[C@@](C)(OC(C)=O)C[C@H](OC(=O)CCC)[C@@]1(O)[C@H]2OC(=O)[C@@]1(C)O` [thapsigargin], in experiment [2] (after 1 μM thapsigargin in calcium-free medium), the “initial rate of rise of [Ca2+]i in response to reintroduction of calcium” value came out at 40.0 ± 5.1 nM/s. The “initial rate of rise of [Ca2+]i in response to thapsigargin” value with CHO-M3 cells [8] (control cells, 1 μM thapsigargin, extracellular calcium present) is 4.3 ± 0.6 nM/s.
